In the first experiment the test system is panel of 290 distinct kinases (321 in the larger panel), excluding mutant variants. As to conditions: asterisk: panel of 321 distinct kinases.
Experimental: The liganded beads were blocked with excess biotin and washed with blocking buffer (SeaBlock (Pierce), 1% BSA, 0.05% Tween 20, 1 mM DTT) to remove unbound ligand and to reduce non-specific binding. […] Test compounds were prepared as 100× stocks in DMSO and rapidly diluted into the aqueous environment. DMSO was added to control assays lacking a test compound. Primary screen interactions were performed in polypropylene 384-well plates in a final volume of 34 μL, while Kd determinations were performed in polystyrene 96-well plates in a final volume of 135 μL. […] The kinase concentration in the eluates was measured by quantitative PCR. Each kinase was tested individually against each compound. KdS were determined using eleven serial threefold dilutions. A selectivity score, which is a quantitative measure of selectivity of a compound against a panel of enzymes, may be calculated for a compound by dividing the number of enzymes for which a compound meets a set criteria, (for example, a binding constant of 100 nM or less), by the total number of enzymes tested. […] (Note, for those compounds tested in a larger kinase panel, as indicated by an asterisk (*) next to the S35 score, the divisor is 321 (i.e. the larger panel contains 321 distinct kinases, excluding mutant variants.)).
Take `COc1cc2c(Sc3cccc(NC(=O)Nc4ccc(OC)c(C(F)(F)F)c4)c3)ncnc2cc1OCCN1CCOCC1` [Ex 249, 1-(4-methoxy-3-(trifluoromethyl)phenyl)-3-(3-(6-methoxy-7-(2-morpholinoethoxy)quinazolin-4-ylthio)phenyl)urea]: the S35 result is given as “C* (0.20 < C ≦ 0.40)”.
The same measure, in the same setting: as for `COCCOc1cc2ncnc(Sc3cccc(NC(=O)Nc4ccc(C(F)(F)F)c(OC)c4)c3)c2cc1OC` [Ex 233, 1-(3-methoxy-4-(trifluoromethyl)phenyl)-3-(3-(6-methoxy-7-(2-methoxyethoxy)quinazolin-4-ylthio)phenyl)urea], the entry is “C* (0.20 < C ≦ 0.40)”; as for `COCCOc1cc2ncnc(Sc3cccc(NC(=O)Nc4cc(C(C)(C)F)no4)c3)c2cc1OC` [Ex 234, 1-(3-(2-fluoropropan-2-yl)isoxazol-5-yl)-3-(3-(6-methoxy-7-(2-methoxyethoxy)quinazolin-4-ylthio)phenyl)urea], “C* (0.20 < C ≦ 0.40)”; as for `COCCOc1cc2ncnc(Oc3cccc(NC(=O)Nc4cc(C(F)(F)F)nn4-c4ccc(F)cc4)c3)c2cc1OC` [Ex 226, 1-[1-(4-fluorophenyl)-3-(trifluoromethyl)-1H-pyrazol-5-yl]-3-{3-[6-methoxy-7-(2-methoxyethoxy)quinazolin-4-yloxy]phenyl}urea], “C* (0.20 < C ≦ 0.40)”.
Take `COCCOc1cc2ncnc(Oc3cccc(NC(=O)Nc4ccc(C(F)(F)F)c(F)c4)c3)c2cc1OC` [Ex 222, 1-(3-fluoro-4-(trifluoromethyl)phenyl)-3-(3-(6-methoxy-7-(2-methoxyethoxy)quinazolin-4-yloxy)phenyl)urea]: the S35 entry is on record as “C* (0.20 < C ≦ 0.40)”.
On to `COCCOc1cc2ncnc(Oc3cccc(NC(=O)Nc4cc(C(C)C)on4)c3)c2cc1OC` [Ex 206, 1-(5-isopropylisoxazol-3-yl)-3-(3-(6-methoxy-7-(2-methoxyethoxy)quinazolin-4-yloxy)phenyl)urea], for which the S35 entry was “C* (0.20 < C ≦ 0.40)”.
On to `COCCOc1cc2ncnc(Oc3cccc(NC(=O)Nc4cc(C(F)(F)F)nn4-c4ccccc4)c3)c2cc1OC` [Ex 221, 1-{3-[6-methoxy-7-(2-methoxyethoxy)quinazolin-4-yloxy]phenyl}-3-[1-phenyl-3-(trifluoromethyl)-1H-pyrazol-5-yl]urea], for which the S35 result is “C* (0.20 < C ≦ 0.40)”.
Still for that read-out and setting: as for `COCCOc1cc2ncnc(Oc3cccc(NC(=O)Nc4cc(C5CCCC5)no4)c3)c2cc1OC` [Ex 207, 1-(3-cyclopentylisoxazol-5-yl)-3-(3-(6-methoxy-7-(2-methoxyethoxy)quinazolin-4-yloxy)phenyl)urea], the entry is “C* (0.20 < C ≦ 0.40)”.

Still in this experiment, the particulars now being: kinase selectivity score, 290 distinct kinases; class symbols.
In the case of `COc1cc(NC(=O)Nc2cccc(Oc3ncnc4cc(OC)c(OC)cc34)c2)cc(C(F)(F)F)c1` [Ex 116, 1-(3-(6,7-dimethoxyquinazolin-4-yloxy)phenyl)-3-(3-methoxy-5-(trifluoromethyl)phenyl)urea], the S35 entry is reported as “B (0.10 < B ≦ 0.20)”.

Still in this experiment, the particulars now being: kinase selectivity score, value marked * (larger kinase panel); class symbols.
With `COc1cc2ncnc(Oc3cccc(NC(=O)Nc4cc(C5(C(F)(F)F)CC5)nn4-c4ccccc4)c3)c2cc1OC` [Ex 137, 1-(3-(6,7-dimethoxyquinazolin-4-yloxy)phenyl)-3-(1-phenyl-3-(1-(trifluoromethyl)cyclopropyl)-1H-pyrazol-5-yl)urea], the S35 result is “D* (D > 0.40)”.
As to `COc1cc2ncnc(Oc3cccc(NC(=O)Nc4cc(C(C)(C)F)no4)c3)c2cc1OCCCS(C)(=O)=O` [Ex 42, 1-(3-(2-fluoropropan-2-yl)isoxazol-5-yl)-3-(3-(7-methoxy-6-(3-(methylsulfonyl)propoxy)quinazolin-4-yloxy)phenyl)urea], the S35 entry is on record as “C* (0.20 < C ≦ 0.40)”.
Still for that read-out and setting: the same measure for `COc1cc2ncnc(Oc3cccc(NC(=O)Nc4cc(C(C)(CF)CF)no4)c3)c2cc1OC` [Ex 159, 1-[3-(1,3-difluoro-2-methylpropan-2-yl)isoxazol-5-yl]-3-[3-(6,7-dimethoxyquinazolin-4-yloxy]phenyl)urea]: “D* (D > 0.40)”; for `COc1cc2ncnc(Oc3cccc(NC(=O)Nc4cc(C(C)(C)C#N)no4)c3)c2cc1OC` [Ex 125, 1-(3-(2-cyanopropan-2-yl)isoxazol-5-yl)-3-(3-(6,7-dimethoxyquinazolin-4-yloxy)phenyl)urea]: “C* (0.20 < C ≦ 0.40)”.

Still in this experiment, the particulars now being: no asterisk: panel of 290 distinct kinases.
Turning to `COc1cc2ncnc(Oc3ccc(Cl)c(NC(=O)Nc4cc(C(C)(C)C)on4)c3)c2cc1OC` [Ex 299, 1-(5-tert-butylisoxazol-3-yl)-3-(2-chloro-5-(6,7-dimethoxyquinazolin-4-yloxy)phenyl)urea], the S35 result was “C (0.20 < C ≦ 0.40)”.
Take `COc1cc2ncnc(Sc3cccc(NC(=O)Nc4cc(C(C)(C)C)nn4-c4ccc(C)cc4)c3)c2cc1OC` [Ex 275, 1-(3-tert-butyl-1-p-tolyl-1H-pyrazol-5-yl)-3-(3-(6,7-dimethoxyquinazolin-4-ylthio)phenyl)urea]: the S35 result was “D (D > 0.40)”.
For the compound `COc1cc2ncnc(Oc3cccc(NC(=O)Nc4cc(C(F)(F)C(F)(F)F)nn4-c4ccccc4)c3)c2cc1OC` [Ex 304, 1-(3-(6,7-dimethoxyquinazolin-4-yloxy)phenyl)-3-(3-(perfluoroethyl)-1-phenyl-1H-pyrazol-5-yl)urea], the S35 entry is reported as “C (0.20 < C ≦ 0.40)”.
With `CCOc1cc2c(Oc3cccc(NC(=O)Nc4cc(C(F)(F)F)nn4-c4ccccc4)c3)ncnc2cc1OC` [Ex 391, 1-(3-(6-ethoxy-7-methoxyquinazolin-4-yloxy)phenyl)-3-(1-phenyl-3-(trifluoromethyl)-1H-pyrazol-5-yl)urea], the S35 entry is “C (0.20 < C ≦ 0.40)”.
With `COc1cc2ncnc(Oc3cccc(NC(=O)Nc4cc(C(C)(C)C)nn4-c4cccc(Cl)c4)c3)c2cc1OC` [Ex 363, 1-(3-tert-butyl-1-(3-chlorophenyl)-1H-pyrazol-5-yl)-3-(3-(6,7-dimethoxyquinazolin-4-yloxy)phenyl)urea], the S35 result is recorded as “D (D > 0.40)”.
For the compound `COc1cc2ncnc(Oc3cccc(NC(=O)Nc4cc(C(C)(C)C)nn4Cc4ccccc4)c3)c2cc1OC` [Ex 357, 1-(1-benzyl-3-tert-butyl-1H-pyrazol-5-yl)-3-(3-(6,7-dimethoxyquinazolin-4-yloxy)phenyl)urea], the S35 entry is given as “C (0.20 < C ≦ 0.40)”.
In the case of `COc1cc2ncnc(Sc3cccc(NC(=O)Nc4cc(C(C)(C)C)nn4-c4ccccc4F)c3)c2cc1OC` [Ex 371, 1-(3-tert-butyl-1-(2-fluorophenyl)-1H-pyrazol-5-yl)-3-(3-(6,7-dimethoxyquinazolin-4-ylthio)phenyl)urea], the S35 result is reported as “D (D > 0.40)”.
As for `COc1cc2ncnc(Oc3cccc(NC(=O)Nc4cc(C(C)(C)C)nn4-c4ccccc4F)c3)c2cc1OC` [Ex 372, 1-(3-tert-butyl-1-(2-fluorophenyl)-1H-pyrazol-5-yl)-3-(3-(6,7-dimethoxyquinazolin-4-yloxy)phenyl)urea], the S35 result was “D (D > 0.40)”.
Regarding `COc1cc2ncnc(Sc3cccc(NC(=O)Nc4cc(C(C)(C)C)nn4-c4cccc(Cl)c4)c3)c2cc1OC` [Ex 364, 1-(3-tert-butyl-1-(3-chlorophenyl)-1H-pyrazol-5-yl)-3-(3-(6,7-dimethoxyquinazolin-4-ylthio)phenyl)urea], the S35 result is given as “D (D > 0.40)”.
For the compound `COc1cc2ncnc(Sc3cccc(NC(=O)Nc4cc(C5(C(F)(F)F)CC5)on4)c3)c2cc1OC` [Ex 378, 1-(3-(6,7-dimethoxyquinazolin-4-ylthio)phenyl)-3-(5-(1-(trifluoromethyl)cyclopropyl)isoxazol-3-yl)urea], the S35 entry is listed as “C (0.20 < C ≦ 0.40)”.
Same read-out and setting: as for `COc1cc2ncnc(Oc3cccc(NC(=O)Nc4cc(C(C)(C)C)nn4-c4cccc(F)c4)c3)c2cc1OC` [Ex 359, 1-(3-tert-butyl-1-(3-fluorophenyl)-1H-pyrazol-5-yl)-3-(3-(6,7-dimethoxyquinazolin-4-yloxy)phenyl)urea], the entry is “D (D > 0.40)”; as for `COc1cc2ncnc(Oc3ccc(F)c(NC(=O)Nc4cc(C(C)(C)C)nn4-c4ccccc4)c3)c2cc1OC` [Ex 368, 1-(3-tert-butyl-1-phenyl-1H-pyrazol-5-yl)-3-(5-(6,7-dimethoxyquinazolin-4-yloxy)-2-fluorophenyl)urea], “D (D > 0.40)”.
For the compound `COc1cc2ncnc(Oc3cccc(NC(=O)Nc4cc(C(C)(C)F)no4)c3F)c2cc1OC` [Ex 296, 1-(3-(6,7-dimethoxyquinazolin-4-yloxy)-2-fluorophenyl)-3-(3-(2-fluoropropan-2-yl)isoxazol-5-yl)urea], the S35 result is reported as “B (0.10 < B ≦ 0.20)”.
As to `COc1cc2ncnc(Oc3cccc(NC(=O)Nc4cc(C(C)(C)C)nn4-c4ccc(C)cc4C)c3)c2cc1OC` [Ex 282, 1-(3-tert-butyl-1-(2,4-dimethylphenyl)-1H-pyrazol-5-yl)-3-(3-(6,7-dimethoxyquinazolin-4-yloxy)phenyl)urea], the S35 result is reported as “C (0.20 < C ≦ 0.40)”.
`COc1cc2ncnc(Oc3cc(NC(=O)Nc4cc(C(C)(C)F)no4)ccc3F)c2cc1OC` [Ex 293, 1-(3-(6,7-dimethoxyquinazolin-4-yloxy)-4-fluorophenyl)-3-(3-(2-fluoropropan-2-yl)isoxazol-5-yl)urea]: the S35 entry was “C (0.20 < C ≦ 0.40)”.
For the compound `COc1cc2ncnc(Sc3cccc(NC(=O)Nc4cc(C(C)(C)C)nn4-c4ccc(C)cc4C)c3)c2cc1OC` [Ex 284, 1-(3-tert-butyl-1-(2,4-dimethylphenyl)-1H-pyrazol-5-yl)-3-(3-(6,7-dimethoxyquinazolin-4-ylthio)phenyl)urea], the S35 result is given as “C (0.20 < C ≦ 0.40)”.
Turning to `COc1cc2ncnc(Oc3ccc(F)c(NC(=O)Nc4cc(C(C)(C)C)on4)c3)c2cc1OC` [Ex 367, 1-(5-tert-butylisoxazol-3-yl)-3-(5-(6,7-dimethoxyquinazolin-4-yloxy)-2-fluorophenyl)urea], the S35 result is on record as “D (D > 0.40)”.
For `COc1cc2ncnc(Oc3cccc(NC(=O)Nc4cc(C(C)(C)F)no4)c3)c2cc1O` [Ex 258, 1-(3-(2-fluoropropan-2-yl)isoxazol-5-yl)-3-(3-(6-hydroxy-7-methoxyquinazolin-4-yloxy)phenyl)urea], the S35 entry is “C (0.20 < C ≦ 0.40)”.
On to `COc1cc2ncnc(Oc3cc(NC(=O)Nc4cc(C(C)(C)C)nn4-c4ccc(C)cc4)c(F)cc3F)c2cc1OC` [Ex 272, 1-(3-tert-butyl-1-p-tolyl-1H-pyrazol-5-yl)-3-(5-(6,7-dimethoxyquinazolin-4-yloxy)-2,4-difluorophenyl)urea], for which the S35 result is “D (D > 0.40)”.

The record behind these values is patent publication US9730937B2, “RAF kinase modulator compounds and methods of use thereof” (AMBIT BIOSCIENCES CORPORATION, priority 2008, dated 2017).
